# In patent US10526336B2, “Fused heteroaryl derivatives as orexin receptor antagonists” (Merck Sharp & Dohme Corp., priority 2014, dated 2020):
# pIC50: −log10 of the molar value.
# Target: human orexin-2 receptor (Homo sapiens (Human), UniProt O43614)
# Assay: FLIPR Ca2+ Flux Assay, orexin-2 receptor antagonism in CHO cells
# Format: cell-based
# Conditions: CHO cells expressing the human orexin-2 receptor; agonist 70 pM Ala-6,12 orexin-A; read-out: hOX2 FLIPR IC50
# Method: The utility of the compounds in accordance with the present invention as orexin receptor OX1R and/or OX2R antagonists may be readily determined without undue experimentation by methodology well known in the art, including the “FLIPR Ca^2+ Flux Assay” (Okumura et al., Biochem. Biophys. Res. Comm. 280:976-981, 2001). In a typical experiment the OX1 and OX2 receptor antagonistic activity of the compounds of the present invention was determined in accordance with the following experimental method. For intracellular calcium measurements, Chinese hamster ovary (CHO) cells expressing the rat orexin-1 receptor or the human orexin-2 receptor, are grown in Iscove's modified DMEM containing 2 mM L-glutamine, […], 1% hypoxanthine-thymidine supplement, 100 U/ml penicillin, 100 μg/ml streptomycin and 10% heat-inactivated fetal calf serum (FCS). The cells are seeded at 20,000 cells/well into Becton-Dickinson black 384-well clear bottom sterile plates coated with poly-D-lysine. All reagents are from GIBCO-Invitrogen Corp. The seeded plates are incubated overnight at 37° C. and 5% CO2. Ala-6,12 human orexin-A as the agonist is prepared as a 1 mM stock solution in 1% bovine serum albumin (BSA) and diluted in assay buffer (HBSS containing 20 mM HEPES, 0.1% BSA and 2.5 mM probenecid, pH7.4) for use in the assay at a final concentration of 70 pM. Test compounds are prepared as 10 mM stock solution in DMSO, then diluted in 384-well plates, first in DMSO, then assay buffer. On the day of the assay, cells are washed 3 times with 100 μl assay buffer and then incubated for 60 min (37° C., 5% CO2) in 60 μl assay buffer containing […] Fluo-4AM ester, 0.02% pluronic acid, and 1% BSA. The dye loading solution is then aspirated and cells are washed 3 times with 100 μl assay buffer. 30 μl of that same buffer is left in each well. Within the Fluorescent Imaging Plate Reader (FLIPR, Molecular Devices), test compounds are added to the plate in a volume of 25 μl, incubated for 5 min and finally 25 μl of agonist is added. Fluorescence is measured for each well at 1 second intervals for 5 minutes and the height of each fluorescence peak is compared to the height of the fluorescence peak induced by 70 pM Ala-6,12 orexin-A with buffer in place of antagonist. For each antagonist, IC50 value (the concentration of compound needed to inhibit 50% of the agonist response) is determined. Alternatively, compound potency can be assessed by a radioligand binding assay (described in Bergman et. al. Bioorg. Med. Chem. Lett. 2008, 18, 1425-1430) in which the inhibition constant (Ki) is determined in membranes prepared from CHO cells expressing either the OX1 or OX2 receptor. The intrinsic orexin receptor antagonist activity of a compound which may be used in the present invention may be determined by these assays.
# human orexin-2 receptor, sequence (O43614 whole entry): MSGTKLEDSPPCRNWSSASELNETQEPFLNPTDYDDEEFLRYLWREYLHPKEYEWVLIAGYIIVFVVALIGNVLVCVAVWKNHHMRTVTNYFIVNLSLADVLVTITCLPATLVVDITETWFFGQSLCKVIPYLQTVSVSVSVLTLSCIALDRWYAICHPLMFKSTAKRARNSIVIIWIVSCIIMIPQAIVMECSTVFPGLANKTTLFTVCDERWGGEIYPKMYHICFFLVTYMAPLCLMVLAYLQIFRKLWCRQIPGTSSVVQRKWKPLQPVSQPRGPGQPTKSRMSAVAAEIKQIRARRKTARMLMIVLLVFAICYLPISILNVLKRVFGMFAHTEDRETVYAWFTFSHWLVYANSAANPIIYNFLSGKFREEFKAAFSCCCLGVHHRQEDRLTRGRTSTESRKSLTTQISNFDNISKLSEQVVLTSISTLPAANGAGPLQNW
row,Structure (SMILES),pIC50
1,"C[C@@H]1CC[C@@H](Nc2nccn3cc(C(F)(F)F)nc23)CN1C(=O)c1ccsc1-n1nccn1 [Example 23, (2-(2H-1,2,3-triazol-2-yl)thiophen-3-yl) ((2R,5R)-2-methyl-5-((2-(trifluoromethyl)imidazo[1,2-α]pyrazin-8-yl)amino)piperidin-1-yl)methanone]",7.00
2,"CCOc1ccccc1C(=O)N1C[C@H](Oc2nccn3nccc23)CC[C@H]1C [Example 81, (2-ethoxyphenyl)((2R,5R)-2-methyl-5-(pyrazolo[1,5-α]pyrazin-4-yloxy)piperidin-1-yl)methanone]",7.28
3,"C[C@@H]1CC[C@@H](Oc2nccn3c(F)cnc23)CN1C(=O)c1ccccc1-n1nccn1 [Example 32, (2-(2H-1,2,3-triazol-2-yl)phenyl)((2R,5R)-5-((3-fluoroimidazo[1,2-a]pyrazin-8-yl)oxy)-2-methylpiperidin-1-yl)methanone]",7.90
4,"Cc1cn2ccnc(N[C@@H]3CC[C@@H](C)N(C(=O)c4ccccc4-n4nccn4)C3)c2n1 [Example 19, (2-(2H-1,2,3-triazol-2-yl)phenyl)((2R,5R)-2-methyl-5-((2-methylimidazo[1,2-a]pyrazin-8-yl)amino)piperidin-1-yl)methanone]",7.29
5,"C[C@@H]1CC[C@@H](Oc2nccn3c(C(F)(F)F)cnc23)CN1C(=O)c1ccsc1-n1nccn1 [Example 58, (2-(2H-1,2,3-triazol-2-yl)thiophen-3-yl)((2R,5R)-2-methyl-5-((3-(trifluoromethyl)imidazo[1,2-a]pyrazin-8-yl)oxy)piperidin-1-yl)methanone]",7.69
6,"C[C@@H]1CC[C@@H](Nc2nccn3c(Cl)cnc23)CN1C(=O)c1ccccc1-c1ncccn1 [Example 31, ((2R,5R)-5-((3-chloroimidazo[1,2-a]pyrazin-8-yl)amino)-2-methylpiperidin-1-yl)(2-(pyrimidin-2-yl)phenyl)methanone]",7.63
7,"C[C@@H]1CC[C@@H](Sc2nccn3ccnc23)CN1C(=O)c1ccccc1-n1nccn1 [Example 5, (2-(2H-1,2,3-triazol-2-yl)phenyl)((2R,5R)-5-(imidazo[1,2-a]pyrazin-8-ylthio)-2-methylpiperidin-1-yl)methanone]",7.99
8,"C[C@@H]1CC[C@@H](Oc2nccn3c(C(F)(F)F)cnc23)CN1C(=O)c1ccccc1-n1ncnn1 [Example 60, (2-(2H-tetrazol-2-yl)phenyl)((2R,5R)-2-methyl-5-((3-(trifluoromethyl)imidazo [1,2-α]pyrazin-8-yl)oxy)piperidin-1-yl)methanone]",7.72
9,"C[C@@H]1CC[C@@H](Oc2nccn3c(C(F)F)cnc23)CN1C(=O)c1cccnc1-n1cccn1 [Example 52, (2-(1H-pyrazol-1-yl)pyridin-3-yl)((2R,5R)-5-((3-(difluoromethyl)imidazo[1,2-α]pyrazin-8-yl)oxy)-2-methylpiperidin-1-yl)methanone]",7.80
10,"C[C@@H]1CC[C@@H](Oc2nccn3nccc23)CN1C(=O)c1nccnc1-n1cccn1 [Example 80, (3-(1H-pyrazol-1-yl)pyrazin-2-yl)((2R,5R)-2-methyl-5-(pyrazolo[1,5-α]pyrazin-4-yloxy)piperidin-1-yl)methanone]",7.50
11,"C[C@@H]1CC[C@@H](Oc2nccn3c(C(F)F)cnc23)CN1C(=O)c1ccsc1-c1ncccn1 [Example 56, ((2R,5R)-5-((3 (difluoromethyl)imidazo [1,2-α]pyrazin-8-yl)oxy)-2-methylpiperidin-1-yl)(2-(pyrimidin-2-yl)thiophen-3-yl)methanone]",7.27
12,"C[C@@H]1CC[C@@H](Oc2nccn3c(Cl)cnc23)CN1C(=O)c1ccccc1-n1nccn1 [Example 26, (2-(2H-1,2,3-triazol-2-yl)phenyl)((2R,5R)-5-((3-chloroimidazo[1,2-a]pyrazin-8-yl)oxy)-2-methylpiperidin-1-yl)methanone]",7.92
13,"Cc1cnn2ccnc(O[C@@H]3CC[C@@H](C)N(C(=O)c4ccccc4-n4nccn4)C3)c12 [Example 89, (2-(2H-1,2,3-triazol-2-yl)phenyl)((2R,5R)-2-methyl-5-((3-methylpyrazolo[1,5-a]pyrazin-4-yl)oxy)piperidin-1-yl)methanone]",7.72
14,"Cc1cn2ccnc(O[C@@H]3CC[C@@H](C)N(C(=O)c4ccsc4-n4nccn4)C3)c2n1 [Example 7, (2-(2H-1,2,3-triazol-2-yl)thiophen-3-yl)((2R,5R)-2-methyl-5-((2-methylimidazo[1,2-a]pyrazin-8-yl)oxy)piperidin-1-yl)methanone]",7.56
15,"C[C@@H]1CC[C@@H](Nc2nccc3ncn(C)c23)CN1C(=O)c1ccccc1-n1nccn1 [Example 100, (2-(2H-1,2,3-triazol-2-yl)phenyl)((2R,5R)-2-methyl-5-((3-methyl-3H-imidazo[4,5-c]pyridin-4-yl)amino)piperidin-1-yl)methanone]",7.02
16,"C[C@@H]1CC[C@@H](Oc2nccn3ccnc23)CN1C(=O)c1ccccc1-n1nccn1 [Example 1, (2-(2H-1,2,3-triazol-2-yl)phenyl)((2R,5R)-5-(imidazo[1,2-a]pyrazin-8-yloxy)-2-methylpiperidin-1-yl)methanone]",7.45
17,"C[C@@H]1CC[C@@H](Oc2nccn3nccc23)CN1C(=O)c1ccccc1-c1ncccn1 [Example 85, ((2R,5R)-2-methyl-5-(pyrazolo[1,5-a]pyrazin-4-yloxy)piperidin-1-yl)(2-(pyrimidin-2-yl)phenyl)methanone]",7.81
18,"COC(=O)c1ccccc1C(=O)N1C[C@H](Oc2nccn3nccc23)CC[C@H]1C [Example 79, methyl 2-((2R,5R)-2-methyl-5-(pyrazolo[1,5-α]pyrazin-4-yloxy)piperidine-1-carbonyl)benzoate]",7.35
19,"C[C@@H]1CC[C@@H](Oc2nccn3c(C(F)F)cnc23)CN1C(=O)c1ccccc1-c1cnccn1 [Example 53, ((2R,5R)-5-((3-(difluoromethyl)imidazo[1,2-α]pyrazin-8-yl)oxy)-2-methylpiperidin-1-yl)(2-(pyrazin-2-yl)phenyl)methanone]",7.67
20,"C[C@@H]1CC[C@@H](Oc2nccn3nccc23)CN1C(=O)c1cscc1-c1ncccn1 [Example 74, ((2R,5R)-2-methyl-5-(pyrazolo[1,5-α]pyrazin-4-yloxy)piperidin-1-yl)(4-(pyrimidin-2-yl)thiophen-3-yl) methanone]",7.46
21,"C[C@@H]1CC[C@@H](Oc2ccnc3ocnc23)CN1C(=O)c1ccccc1-n1ncnn1 [Example 92, (2-(2H-tetrazol-2-yl)phenyl)((2R,5R)-2-methyl-5-(oxazolo [5,4-b]pyridin-7-yloxy)piperidin-1-yl)methanone]",7.44
22,"CCCc1ccccc1C(=O)N1C[C@H](Oc2nccn3nccc23)CC[C@H]1C [Example 82, ((2R,5R)-2-methyl-5-(pyrazolo [1,5-α]pyrazin-4-yloxy)piperidin-1-yl) (2-propylphenyl)methanone]",7.47
23,"C[C@@H]1CC[C@@H](Oc2nccn3nccc23)CN1C(=O)c1ccccc1C1(C#N)CC1 [Example 72, 1-(2-((2R,5R)-2-methyl-5-(pyrazolo[1,5-α]pyrazin-4-yloxy)piperidine-1-carbonyl)phenyl) cyclopropanecarbonitrile]",7.84
24,"C[C@@H]1CC[C@@H](Oc2nccc3c2cnn3C)CN1C(=O)c1ccccc1-n1nccn1 [Example 95, (2-(2H-1,2,3-triazol-2-yl)phenyl)((2R,5R)-2-methyl-5-((1-methyl-1H-pyrazolo[4,3-c]pyridin-4-yl)oxy)piperidin-1-yl)methanone]",7.75
25,"C[C@@H]1CC[C@@H](Oc2nccn3nccc23)CN1C(=O)c1ccccc1-n1nccn1 [Example 69, (2-(2H-1,2,3-triazol-2-yl)phenyl)((2R,5R)-2-methyl-5-(pyrazolo[1,5-a]pyrazin-4-yloxy)piperidin-1-yl)methanone]",7.57
26,"C[C@@H]1CC[C@@H](Oc2nccn3c(C(F)(F)F)cnc23)CN1C(=O)c1ncccc1-c1ccccc1 [Example 62, ((2R,5R)-2-methyl-5-((3-(trifluoromethyl)imidazo [1,2-α]pyrazin-8-yl)oxy)piperidin-1-yl)(3-phenylpyridin-2-yl)methanone]",7.33
